Data published in US20190374563A1, “TREATMENT OF KLEBSIELLA PNEUMONIAE INFECTIONS WITH ANTIBACTERIAL AMINOGLYCOSIDE COMPOUNDS” (Achaogen, Inc., priority 2009, published 2019).
Values after ≈ are worked out from the molar mass of the structure shown.

Key:
[1] = tested on: E. coli ATCC 25922 (AECO001); assay: MIC assay, CLSI broth microdilution; format: cell-based; details: Escherichia coli, ATCC25922, read-out: MIC AECO001
Method in brief: (§1)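 CLSI M7-A7 broth microdilution in Mueller Hinton Broth using two-fold compound serial dilutions. Inoculum was prepared from the previous day's agar colonies at a final 5×10^5 CFU/mL. Plates were incubated at 35° C for 20 hours in ambient air.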

[2] = tested on: P. aeruginosa ATCC 27853 (APAE001); assay: MIC assay, CLSI broth microdilution; format: cell-based; details: Pseudomonas aeruginosa, ATCC27853, read-out: MIC APAE001
Method in brief: as §1

| SMILES | MIC [1] [µg/mL] | MIC [2] [µg/mL] |
| --- | --- | --- |
| CN[C@@H]1[C@@H](O)[C@@H](O[C@@H]2[C@@H](O)[C@H](O[C@H]3OC(CNCCC(N)C4CC4)=CC[C@H]3N)[C@@H](N)C[C@H]2NC(=O)[C@@H](O)CN)OC[C@]1(C)O (stereo partly drawn) [Example 52, 6′-(3-Amino-3-cyclopropyl-propyl)-1-(3-amino-2(S)-hydroxy-propionyl)-sisomicin] | < 1 | 1 to 16 (≈ 1.58 to 25.3 µM) |
| CN[C@@H]1[C@@H](O)[C@@H](O[C@@H]2[C@@H](O)[C@H](O[C@H]3OC(CN)=CC[C@H]3NCCCN)[C@@H](N)C[C@H]2NC(=O)[C@@H](O)CCN)OC[C@]1(C)O [Example 91, 2′-(3-Amino-propyl)-1-(4-amino-2(S)-hydroxy-butyryl)-sisomicin] | < 1 | < 1 |
| CN[C@@H]1[C@@H](O)[C@@H](O[C@@H]2[C@@H](O)[C@H](O[C@H]3OC(CNCC(O)CO)=CC[C@H]3N)[C@@H](N)C[C@H]2NC(=O)[C@H](O)CN)OC[C@]1(C)O (stereo partly drawn) [Example 10, 6′-(2-Hydroxy-propanol)-1-(3-amino-2(R)-hydroxy-propionyl)-sisomicin] | 1 to 16 (≈ 1.64 to 26.3 µM) | 1 to 16 (≈ 1.64 to 26.3 µM) |
| CN[C@@H]1[C@@H](O)[C@@H](O[C@@H]2[C@@H](O)[C@H](O[C@H]3OC(CNCCO)=CC[C@H]3N)[C@@H](N)C[C@H]2NC(=O)[C@H](O)CN)OC[C@]1(C)O [Example 9, 6′-(2-Hydroxy-ethyl)-1-(3-amino-2(R)-hydroxy-propionyl)-sisomicin] | 1 to 16 (≈ 1.73 to 27.6 µM) | > 16 |
| CN[C@@H]1[C@@H](O)[C@@H](O[C@@H]2[C@@H](O)[C@H](O[C@H]3OC(CN)=CC[C@H]3NC[C@H]3C[C@H](N)C3)[C@@H](N)C[C@H]2NC(=O)[C@@H](O)CCN)OC[C@]1(C)O [Example 104, 2′-(Methyl-trans-3-amino-cyclobutyl)-1-(4-amino-2(S)-hydroxy-butyryl)-sisomicin] | < 1 | 1 to 16 (≈ 1.58 to 25.3 µM) |
| CN[C@@H]1[C@@H](O)[C@@H](O[C@@H]2[C@@H](O)[C@H](O[C@H]3OC(CN)=CC[C@H]3NC(=O)C3CCCN3)[C@@H](N)C[C@H]2NC(=O)[C@@H](O)CCN)OC[C@]1(C)O (stereo partly drawn) [Example 90] | < 1 | 1 to 16 (≈ 1.55 to 24.8 µM) |
| CN[C@@H]1[C@@H](O)[C@@H](O[C@@H]2[C@@H](O)[C@H](O[C@H]3OC(CN)=CC[C@H]3NS(=O)(=O)CCN)[C@@H](N)C[C@H]2NC(=O)[C@@H](O)CCN)OC[C@]1(C)O [Example 93, 2′-(2-Amino-ethyl-sulfonamide)-1-(4-amino-2(S)-hydroxy-butyryl)-sisomicin] | < 1 | 1 to 16 (≈ 1.52 to 24.4 µM) |
| CN[C@@H]1[C@@H](O)[C@@H](O[C@@H]2[C@@H](O)[C@H](O[C@H]3OC(CNCC4CC4)=CC[C@H]3N)[C@@H](N)C[C@H]2NC(=O)C2(O)CCNC2)OC[C@]1(C)O (stereo partly drawn) [Example 41] | < 1 | 1 to 16 (≈ 1.63 to 26 µM) |
| CN[C@@H]1[C@@H](O)[C@@H](O[C@@H]2[C@@H](O)[C@H](O[C@H]3OC(CNCCCN)=CC[C@H]3N)[C@@H](N)C[C@H]2NC(=O)C(O)C2CNC2)OC[C@]1(C)O (stereo partly drawn) [Example 76, 6′-(3-Amino-propyl)-1-(2-(azetidin-3-yl)-2-hydroxy-acetyl)-sisomicin] | 1 to 16 (≈ 1.62 to 25.9 µM) | 1 to 16 (≈ 1.62 to 25.9 µM) |
| CN[C@@H]1[C@@H](O)[C@@H](O[C@@H]2[C@@H](O)[C@H](O[C@H]3OC(CNCC(N)CO)=CC[C@H]3N)[C@@H](N)C[C@H]2NC(=O)[C@@H](O)CCN)OC[C@]1(C)O (stereo partly drawn) [Example 30, 6′-(2-Amino-propanol)-1-(4-amino-2(S)-hydroxy-butyryl)-sisomicin] | < 1 | 1 to 16 (≈ 1.61 to 25.7 µM) |
| CN[C@@H]1[C@@H](O)[C@@H](O[C@@H]2[C@@H](O)[C@H](O[C@H]3OC(CNCC4(N)CCC4)=CC[C@H]3N)[C@@H](N)C[C@H]2NC(=O)[C@@H](O)CN)OC[C@]1(C)O [Example 56, 6′-(Methyl-1-amino-cyclobutyl)-1-(3-amino-2(S)-hydroxy-propionyl)-sisomicin] | < 1 | > 16 |
| CN[C@@H]1[C@@H](O)[C@@H](O[C@@H]2[C@@H](O)[C@H](O[C@H]3OC(CNCC4CC4)=CC[C@H]3N)[C@@H](N)C[C@H]2NC(=O)C(O)C2CNC2)OC[C@]1(C)O (stereo partly drawn) [Example 71, 6′-Methylcyclopropyl-1-(2-(azetidin-3-yl)-2-hydroxy-acetyl)-sisomicin] | 1 to 16 (≈ 1.63 to 26 µM) | > 16 |
| CN[C@@H]1[C@@H](O)[C@@H](O[C@@H]2[C@@H](O)[C@H](O[C@H]3OC(CNCC4(O)CC(N)C4)=CC[C@H]3N)[C@@H](N)C[C@H]2NC(=O)C(O)C2CNC2)OC[C@]1(C)O (stereo partly drawn) [Example 83, 6′-(Methyl-3-amino-1-hydroxy-cyclobutyl)-1-(2-(azetidin-3-yl)-2-hydroxy-acetyl)-sisomicin] | 1 to 16 (≈ 1.52 to 24.3 µM) | > 16 |
| CN[C@@H]1[C@@H](O)[C@@H](O[C@@H]2[C@@H](O)[C@H](O[C@H]3OC(CNCCO)=CC[C@H]3N)[C@@H](N)C[C@H]2NC(=O)C2(O)CC(N)C2)OC[C@]1(C)O (stereo partly drawn) [Example 62] | < 1 | 1 to 16 (≈ 1.65 to 26.5 µM) |
| CN[C@@H]1[C@@H](O)[C@@H](O[C@@H]2[C@@H](O)[C@H](O[C@H]3OC(CNC[C@H]4C[C@H](O)CN4)=CC[C@H]3N)[C@@H](N)C[C@H]2NC(=O)[C@@H](O)CN)OC[C@]1(C)O [Example 53, 6′-(Methyl-4(S)-hydroxy-pyrrolidin-2(R)-yl)-1-(3-amino-2(S)-hydroxy-propionyl)-sisomicin] | 1 to 16 (≈ 1.58 to 25.2 µM) | > 16 |
| CN[C@@H]1[C@@H](O)[C@@H](O[C@@H]2[C@@H](O)[C@H](O[C@H]3OC(CNCC(O)CCCN)=CC[C@H]3N)[C@@H](N)C[C@H]2NC(=O)[C@@H](O)CCN)OC[C@]1(C)O (stereo partly drawn) [Example 32, 6′-(2-Hydroxy-5-amino-pentyl)-1-(4-amino-2(S)-hydroxy-butyryl)-sisomicin] | < 1 | 1 to 16 (≈ 1.54 to 24.6 µM) |
| CN[C@@H]1[C@@H](O)[C@@H](O[C@@H]2[C@@H](O)[C@H](O[C@H]3OC(CN)=CC[C@H]3NC(=O)C(C)N)[C@@H](N)C[C@H]2NC(=O)[C@@H](O)CCN)OC[C@]1(C)O (stereo partly drawn) [Example 88, 2′-(2-Amino-propionyl)-1-(4-amino-2(S)-hydroxy-butyryl)-sisomicin] | 1 to 16 (≈ 1.61 to 25.8 µM) | 1 to 16 (≈ 1.61 to 25.8 µM) |
| CN[C@@H]1[C@@H](O)[C@@H](O[C@@H]2[C@@H](O)[C@H](O[C@H]3OC(CNCCO)=CC[C@H]3N)[C@@H](N)C[C@H]2NS(=O)(=O)CCN)OC[C@]1(C)O [Example 29, 6′-(2-Hydroxy-ethyl)-1-(2-amino-ethylsulfonamide)-sisomicin] | 1 to 16 (≈ 1.67 to 26.7 µM) | > 16 |
| CN[C@@H]1[C@@H](O)[C@@H](O[C@@H]2[C@@H](O)[C@H](O[C@H]3OC(CN)=CC[C@H]3NC[C@H](C)N)[C@@H](N)C[C@H]2NC(=O)[C@@H](O)CCN)OC[C@]1(C)O [Example 95, 2′-(2(S)-Amino-propyl)-1-(4-amino-2(S)-hydroxy-butyryl)-sisomicin] | < 1 | > 16 |
| CN[C@@H]1[C@@H](O)[C@@H](O[C@@H]2[C@@H](O)[C@H](O[C@H]3OC(CNC[C@H]4C[C@H](N)C4)=CC[C@H]3N)[C@@H](N)C[C@H]2NC(=O)C2(O)CNC2)OC[C@]1(C)O [Example 63] | < 1 | 1 to 16 (≈ 1.59 to 25.4 µM) |
| CN[C@@H]1[C@@H](O)[C@@H](O[C@@H]2[C@@H](O)[C@H](O[C@H]3OC(CNC[C@H](O)CO)=CC[C@H]3N)[C@@H](N)C[C@H]2NC(=O)[C@@H](O)CCN)OC[C@]1(C)O [Example 28, 6′-(2(S)-Hydroxy-propanol)-1-(4-amino-2(S)-hydroxy-butyryl)-sisomicin] | 1 to 16 (≈ 1.61 to 25.7 µM) | 1 to 16 (≈ 1.61 to 25.7 µM) |
